These compounds were tested against T1, heparanase (Homo sapiens, UniProt Q9Y251) (assay: AGA*IA assay: heparanase-catalyzed fondaparinux cleavage, colorimetric (WST-1)). Details: not given.
T1 construct: 100 µM fondaparinux, 2.5 nM heparanase and serial dilutions of test compounds
T1 sequence (Q9Y251 158-543 limits assumed): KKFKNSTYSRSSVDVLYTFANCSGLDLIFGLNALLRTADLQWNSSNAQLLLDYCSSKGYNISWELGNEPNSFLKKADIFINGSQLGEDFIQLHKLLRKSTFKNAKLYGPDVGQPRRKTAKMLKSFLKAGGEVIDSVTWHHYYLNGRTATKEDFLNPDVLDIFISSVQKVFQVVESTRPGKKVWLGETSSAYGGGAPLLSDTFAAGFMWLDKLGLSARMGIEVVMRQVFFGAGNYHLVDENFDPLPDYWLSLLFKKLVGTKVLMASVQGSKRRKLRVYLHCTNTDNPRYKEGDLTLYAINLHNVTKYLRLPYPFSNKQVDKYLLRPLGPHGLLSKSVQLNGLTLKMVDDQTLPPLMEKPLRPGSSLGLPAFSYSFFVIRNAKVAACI
T1 sequence (Q9Y251 36-109 limits assumed): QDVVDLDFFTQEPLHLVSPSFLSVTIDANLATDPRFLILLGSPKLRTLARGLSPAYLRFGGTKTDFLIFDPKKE
Format: biochemical
Description: All compounds were tested in a simple, accurate and robust microplate assay based on the cleavage of the synthetic heparin fragment, the pentasaccharide Fondaparinux (AGA*IA). This assay was originally developed by Hammond and coworkers [Hammond E, Li CP, Ferro V. Development of a colorimetric assay for heparanase activity suitable for kinetic analysis and inhibitor screening. […] Fondaparinux is cleaved by heparanase to generate a reducing disaccharide, which can be quantitatively measured via a colorimetric or a fluorescence assay, the last by the fluorescent sensor polymer-H [Schiemann S, Lühn S, Alban S. Development of both colorimetric and fluorescence heparinase activity assays using fondaparinux as substrate.
The assay measures the appearance of the disaccharide product of heparanase-catalyzed fondaparinux cleavage colorimetrically using the tetrazolium salt WST-1. Assay was essentially performed as described with minor modifications. Briefly, NUNC ELISA 96-well plates were pre-treated with a solution of 4% BSA (bovin serum albumin) in phosphate-buffered saline containing 0.05% Tween 20 (PBST), for 2 h at 37°C, then washed three times with PBST, dried by tapping on paper towel and stored at -20°C. Before use, once again, the plates were washed with PBST.
Then, the absorbance at 560 nm was measured through a microplate reader (Victor 3, Perkin Elmer).
Finally, the measurements were corrected by subtracting both the reagent background and the inner absorbance value of test compound.

Row | SMILES | IC50
1 | O=C(Nc1ccc(-c2nc3ccccc3o2)cc1)c1ccc(Oc2ccc(C(=O)Nc3ccc(-c4nc5ccccc5o4)cc3)cc2)cc1 [SST0805] | 1 to 10 µM

Same assay, conditions: 2.5 nM heparanase, 100 µM fondaparinux, pH 5.0, 3 h at 37°C; class symbols; read-out: AGAIA assay (IC50)

Row | SMILES | IC50
2 | O=C(Nc1csc(-c2ccc(Oc3ccc(-c4nc(NC(=O)c5ccc(C(=O)c6ccccc6)cc5)cs4)cc3)cc2)n1)c1ccc(C(=O)c2ccccc2)cc1 [SST0804] | 1 to 10 µM
3 | O=C(O)c1ccc(Oc2ccc3c(c2)C(=O)N(c2ccc(Oc4ccc(N5C(=O)c6ccc(Oc7ccc(C(=O)O)cc7)cc6C5=O)cc4)cc2)C3=O)cc1 [SST0807, 4-[2-[4-[4-[5-(4-carboxyphenoxy)-1,3-dioxoisoindol-2-yl]phenoxy]phenyl]-1,3-dioxoisoindol-5-yl]oxybenzoic acid] | 1 to 10 µM
4 | O=C(O)c1cc(NC(=O)c2ccc(Oc3ccc(C(=O)Nc4cc(C(=O)O)cc(C(=O)O)c4)cc3)cc2)cc(C(=O)O)c1 [SST0808, 5-[[4-[4-[(3,5-dicarboxyphenyl)carbamoyl]phenoxy]benzoyl]amino]benzene-1,3-dicarboxylic acid] | 1 to 10 µM
5 | O=C(O)c1ccc(NC(=O)c2ccc(Oc3ccc(C(=O)Nc4ccc(C(=O)O)cc4)cc3)cc2)cc1 [SST0809, 4,4'-[oxybis(benzene-4,1-diylcarbonylimino)]dibenzoic acid] | 1 to 10 µM
6 | O=C(Nc1ccc(O)cc1C(=O)O)c1ccc(Oc2ccc(C(=O)Nc3ccc(O)cc3C(=O)O)cc2)cc1 [SST0810] | 1 to 10 µM
7 | O=C(Nc1cccc(Oc2ccc(S(=O)(=O)c3ccc(Oc4cccc(NC(=O)c5ccc(F)cc5)c4)cc3)cc2)c1)c1ccc(F)cc1 [SST0812] | 1 to 10 µM
8 | O=C(O)c1ccc2c(c1)C(=O)N(c1ccc(Oc3ccc(Oc4ccc(N5C(=O)c6ccc(C(=O)O)cc6C5=O)cc4)cc3)cc1)C2=O [SST0813] | 1 to 10 µM
9 | O=C(Nc1nc(-c2ccc(F)cc2)cs1)c1ccc(Oc2ccc(C(=O)Nc3nc(-c4ccc(F)cc4)cs3)cc2)cc1 [SST0815] | 1 to 10 µM

Continued, values first:

Row | IC50 | SMILES
10 | 1 to 10 µM | O=C(Nc1ccccc1C(=O)O)c1ccc2c(c1)C(=O)N(c1ccc(Oc3ccc(N4C(=O)c5ccc(C(=O)Nc6ccccc6C(=O)O)cc5C4=O)cc3)cc1)C2=O [SST0600, Benzoic acid, 2,2'-[oxybis[4,1-phenylene(1,3-dihydro-1,3-dioxo-2H-isoindole-2,5-diyl)carbonylimino]]bis-]
11 | 1 to 10 µM | O=C(Nc1ccccc1C(=O)O)c1ccc2c(c1)C(=O)N(c1ccc(S(=O)(=O)c3ccc(N4C(=O)c5ccc(C(=O)Nc6ccccc6C(=O)O)cc5C4=O)cc3)cc1)C2=O [SST0602, 2-[[2-[4-[4-[5-[(2-carboxyphenyl)carbamoyl]-1,3-dioxoisoindol-2-yl]phenyl]sulfonylphenyl]-1,3-dioxoisoindole-5-carbonyl]amino]benzoic acid]
12 | 1 to 10 µM | O=C(Nc1ccc(Br)cc1C(=O)O)c1ccc(Oc2ccc(C(=O)Nc3ccc(Br)cc3C(=O)O)cc2)cc1 [SST0604, 5-bromo-2-[[4-[4-[(4-bromo-2-carboxyphenyl)carbamoyl]phenoxy]benzoyl]amino]benzoic acid]
13 | 1 to 10 µM | O=C(Nc1ccc(NC(=O)c2ccc(N=Nc3ccc(O)cc3O)cc2)c(S(=O)(=O)O)c1)Nc1ccc(NC(=O)c2ccc(N=Nc3ccc(O)cc3O)cc2)c(S(=O)(=O)O)c1 [SST0610]
14 | 1 to 10 µM | Nc1ccc2cc(S(=O)(=O)O)cc(O)c2c1N=Nc1ccc(NC(=O)Nc2ccc(N=Nc3c(N)ccc4cc(S(=O)(=O)O)cc(O)c34)c(S(=O)(=O)O)c2)cc1S(=O)(=O)O [SST0753]
15 | 1 to 10 µM | O=C(Nc1cccc(C(=O)c2ccccc2)c1)c1ccc(Oc2ccc(C(=O)Nc3cccc(C(=O)c4ccccc4)c3)cc2)cc1 [SST0801]
16 | 1 to 10 µM | O=C(Nc1cccc(-c2nc3ccccc3s2)c1)c1ccc(Oc2ccc(C(=O)Nc3cccc(-c4nc5ccccc5s4)c3)cc2)cc1 [SST0802, N-[3-(1,3-benzothiazol-2-yl)phenyl]-4-[4-[[3-(1,3-benzothiazol-2-yl)phenyl]carbamoyl]phenoxy]benzamide]
17 | 1 to 10 µM | O=C(Nc1nc(-c2ccc3ccccc3c2)cs1)c1ccc(Oc2ccc(C(=O)Nc3nc(-c4ccc5ccccc5c4)cs3)cc2)cc1 [SST0803]
